This note sets out measurements from article PMC6987146, “Potent inhibition of HIV replication in primary human cells by novel synthetic polyketides inspired by Aureothin” (Scientific Reports, 2020).

For the assay, the system named is HIV-1MMVP899-87. Nature of the assay: Inhibition of clinical isolate HIV-1M MVP899-87 in PBMCs. Particulars: PBMC. The format is cell-based. The text has this:
Clinical isolates represented the following HIV genotypes: HIV-1MMVP899-87: HIV-type 1, Major group; HIV-1OMVP5180-91: HIV-type 1, Outlier group; HIV-2MVP10668-93: HIV-type 2; HIV-1V13-03413B: HIV-type 1, Major group/B-clade, isolate with multiple drug-resistance mutations. Depicted are the means of three independent experiments with biological triplicates (n = 3; m = 3) and standard deviations (SD).
Isolation of primary clinical HIV-isolates HIV-1MMVP899-87, HIV-1OMVP5180-91, HIV-1V13-03413B and HIV-2MVP10668-93 is described in[43]. The HIV-1 M group/B-clade isolate (HIV-1V13-03413B) was isolated from a patient with virological treatment failure. Clinical isolates were produced from HIV infected H9 cells as described.
To evaluate anti-HIV efficacies of test compounds in primary human target cells, stimulated PBMCs were seeded in 96-well plates at a density of 500,000 cells per well, different #7concentrations of the compound (serial dilutions) and virus inoculum (MOI of 0.5) added to the PBMCs and cultures incubated for 48 h. Infectious virus production was quantified by transferring 35 µl of supernatant from the PBMC cultures to LC5-RIC cells, seeded in black 96-well plates one day earlier. LC5-RIC cultures were then incubated for 72 h and analysed for DsRed1 reporter expression and anti-HIV activity calculated as described for the EASY-HIT assay.

In general, IC50 refers to the point on the concentration scale where inhibition reaches its midpoint. In general, IC90 refers to the concentration at which the effect reaches the 90% level.

On to `COc1oc(C2C/C(=C/C(C)=C/c3ccc(C(F)(F)F)cc3)CO2)c(C)c(=O)c1C` (centres unmarked) [compound #7], for which the IC50 (read-out: IC50 value, HIV-1M MVP899-87, HIV-type 1, Major group) was 4.11 nM. Further, the IC90 (read-out: IC90 value, HIV-1M MVP899-87, HIV-type 1, Major group) came out at 12.3 nM.
